Laboratory results: patent US8680012B2, “4-phenyl-pyrane-3,5-diones,4-phenyl-thiopyrane-3,6-diones and cyclohexanetriones as novel herbicides” (Syngenta Crop Protection LLC, priority 2006, dated 2014)

Tests used:
[1] = test system: Alopecurus myosuroides (ALOMY); assay: Example A pre-emergence herbicidal activity, glasshouse pot test; assay type: in vivo; conditions: 480 h, evaluated 20 days after spraying, read-out: Pre-emergence activity ALOMY (100=total damage to plant; 0=no damage to plant); for pest or weed control at 250 g/ha: rate 250 g/ha; for pest or weed control at 500 g/ha: rate 500 g/ha
Method: (§1) Seeds of a variety of test species were sown in standard soil in pots. After cultivation for one day (pre-emergence) or after 10 days cultivation (post-emergence) under controlled conditions in a glasshouse, the plants were sprayed with an aqueous spray solution derived from the formulation of the technical active ingredient in 0.6 ml acetone and 45 ml formulation solution containing 10.6% Emulsogen EL (Registry number 61791-12-6), 42.2% N-methylpyrrolidone, 42.2% dipropylene glycol monomethyl ether (Registry number 34590-94-8) and 0.2% X-77 (Registry number 11097-66-8). The test plants were then grown in a greenhouse under optimum conditions until, 15 days later for post-emergence and 20 days for pre-emergence, the test was evaluated (100=total damage to plant; 0=no damage to plant).
(§2) Alopecurus myosuroides (ALOMY), Avena fatua (AVEFA), Lolium perenne (LOLPE), Setaria faberi (SETFA), Digitaria sanguinalis (DIGSA), Echinochloa crus-galli (ECHCG)

Avena fatua (AVEFA) [2] = assay: as above; assay type: in vivo; conditions: 480 h, evaluated 20 days after spraying, read-out: Pre-emergence activity AVEFA (100=total damage to plant; 0=no damage to plant); for pest or weed control at 250 g/ha: rate 250 g/ha; for pest or weed control at 500 g/ha: rate 500 g/ha
Method: as §1, §2

[3] = test system: Digitaria sanguinalis (DIGSA); assay: as above; assay type: in vivo; conditions: 480 h, evaluated 20 days after spraying, read-out: Pre-emergence activity DIGSA (100=total damage to plant; 0=no damage to plant); for pest or weed control at 250 g/ha: rate 250 g/ha; for pest or weed control at 500 g/ha: rate 500 g/ha
Method: as §1, §2

[4] = test system: Echinochloa crus-galli (ECHCG); assay: as above; assay type: in vivo; conditions: 480 h, evaluated 20 days after spraying, read-out: Pre-emergence activity ECHCG (100=total damage to plant; 0=no damage to plant); for pest or weed control at 250 g/ha: rate 250 g/ha; for pest or weed control at 500 g/ha: rate 500 g/ha
Method: as §1, §2

Lolium perenne (LOLPE) [5] = assay: as above; assay type: in vivo; conditions: 480 h, evaluated 20 days after spraying, read-out: Pre-emergence activity LOLPE (100=total damage to plant; 0=no damage to plant); for pest or weed control at 250 g/ha: rate 250 g/ha; for pest or weed control at 500 g/ha: rate 500 g/ha
Method: as §1, §2

Setaria faberi (SETFA) [6] = assay: as above; assay type: in vivo; conditions: 480 h, evaluated 20 days after spraying, read-out: Pre-emergence activity SETFA (100=total damage to plant; 0=no damage to plant); for pest or weed control at 250 g/ha: rate 250 g/ha; for pest or weed control at 500 g/ha: rate 500 g/ha
Method: as §1, §2

[7] = test system: Alopecurus myosuroides (ALOMY); assay: Example A post-emergence herbicidal activity, glasshouse pot test; assay type: in vivo; conditions: 360 h, rate 125 g/ha, evaluated 15 days after spraying, read-out: Post-emergence activity ALOMY (100=total damage to plant; 0=no damage to plant)
Method: as §1, §2

Avena fatua (AVEFA) [8] = assay: as above; assay type: in vivo; conditions: 360 h, rate 125 g/ha, evaluated 15 days after spraying, read-out: Post-emergence activity AVEFA (100=total damage to plant; 0=no damage to plant)
Method: as §1, §2

[9] = test system: Digitaria sanguinalis (DIGSA); assay: as above; assay type: in vivo; conditions: 360 h, rate 125 g/ha, evaluated 15 days after spraying, read-out: Post-emergence activity DIGSA (100=total damage to plant; 0=no damage to plant)
Method: as §1, §2

[10] = test system: Echinochloa crus-galli (ECHCG); assay: as above; assay type: in vivo; conditions: 360 h, rate 125 g/ha, evaluated 15 days after spraying, read-out: Post-emergence activity ECHCG (100=total damage to plant; 0=no damage to plant)
Method: as §1, §2

Lolium perenne (LOLPE) [11] = assay: as above; assay type: in vivo; conditions: 360 h, rate 125 g/ha, evaluated 15 days after spraying, read-out: Post-emergence activity LOLPE (100=total damage to plant; 0=no damage to plant)
Method: as §1, §2

Setaria faberi (SETFA) [12] = assay: as above; assay type: in vivo; conditions: 360 h, rate 125 g/ha, evaluated 15 days after spraying, read-out: Post-emergence activity SETFA (100=total damage to plant; 0=no damage to plant)
Method: as §1, §2

[13] = test system: Alopecurus myosuroides (ALOMY); assay: Example B pre-emergence herbicidal activity, glasshouse pot test; assay type: in vivo; conditions: 312 h, rate 250 g/ha, evaluated after 13 days, read-out: Pre-emergence activity ALOMY (100=total damage to plant; 0=no damage to plant)
In short: (§3)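 Damage rating, 0–100, at 13 d after application. Spray solution: a.i. in acetone/water (50:50), 0.5% Tween 20. Applied 1 d after sowing or at 8 d growth; pots held at 24/16 °C, 14 h light, 65% humidity.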

[14] = test system: Amaranthus retroflexus (AMARE); assay: as above; assay type: in vivo; conditions: 312 h, rate 250 g/ha, evaluated after 13 days, read-out: Pre-emergence activity AMARE (100=total damage to plant; 0=no damage to plant)
In short: as §3

Avena fatua (AVEFA) [15] = assay: as above; assay type: in vivo; conditions: 312 h, rate 250 g/ha, evaluated after 13 days, read-out: Pre-emergence activity AVEFA (100=total damage to plant; 0=no damage to plant)
In short: as §3

[16] = test system: Echinochloa crus-galli (ECHCG); assay: as above; assay type: in vivo; conditions: 312 h, rate 250 g/ha, evaluated after 13 days, read-out: Pre-emergence activity ECHCG (100=total damage to plant; 0=no damage to plant)
In short: as §3

Setaria faberi (SETFA) [17] = assay: as above; assay type: in vivo; conditions: 312 h, rate 250 g/ha, evaluated after 13 days, read-out: Pre-emergence activity SETFA (100=total damage to plant; 0=no damage to plant)
In short: as §3

[18] = test system: Alopecurus myosuroides (ALOMY); assay: Example B post-emergence herbicidal activity, glasshouse pot test; assay type: in vivo; conditions: 312 h, rate 250 g/ha, evaluated after 13 days, read-out: Post-emergence activity ALOMY (100=total damage to plant; 0=no damage to plant)
In short: as §3

[19] = test system: Amaranthus retroflexus (AMARE); assay: as above; assay type: in vivo; conditions: 312 h, rate 250 g/ha, evaluated after 13 days, read-out: Post-emergence activity AMARE (100=total damage to plant; 0=no damage to plant)
In short: as §3

Avena fatua (AVEFA) [20] = assay: as above; assay type: in vivo; conditions: 312 h, rate 250 g/ha, evaluated after 13 days, read-out: Post-emergence activity AVEFA (100=total damage to plant; 0=no damage to plant)
In short: as §3

[21] = test system: Echinochloa crus-galli (ECHCG); assay: as above; assay type: in vivo; conditions: 312 h, rate 250 g/ha, evaluated after 13 days, read-out: Post-emergence activity ECHCG (100=total damage to plant; 0=no damage to plant)
In short: as §3

Setaria faberi (SETFA) [22] = assay: as above; assay type: in vivo; conditions: 312 h, rate 250 g/ha, evaluated after 13 days, read-out: Post-emergence activity SETFA (100=total damage to plant; 0=no damage to plant)
In short: as §3

| melting point [°C] | Structure (SMILES) | pest or weed control at 250 g/ha [1] [%] | pest or weed control at 250 g/ha (Avena fatua (AVEFA) [2]) [%] | pest or weed control at 250 g/ha [3] [%] | pest or weed control at 250 g/ha [4] [%] | pest or weed control at 250 g/ha (Lolium perenne (LOLPE) [5]) [%] | pest or weed control at 250 g/ha (Setaria faberi (SETFA) [6]) [%] | pest or weed control at 125 g/ha [7] [%] | pest or weed control at 125 g/ha (Avena fatua (AVEFA) [8]) [%] | pest or weed control at 125 g/ha [9] [%] | pest or weed control at 125 g/ha [10] [%] | pest or weed control at 125 g/ha (Lolium perenne (LOLPE) [11]) [%] | pest or weed control at 125 g/ha (Setaria faberi (SETFA) [12]) [%] | pest or weed control at 500 g/ha [1] [%] | pest or weed control at 500 g/ha (Avena fatua (AVEFA) [2]) [%] | pest or weed control at 500 g/ha [3] [%] | pest or weed control at 500 g/ha [4] [%] | pest or weed control at 500 g/ha (Lolium perenne (LOLPE) [5]) [%] | pest or weed control at 500 g/ha (Setaria faberi (SETFA) [6]) [%] | also measured |
| --- | --- | --- | --- | --- | --- | --- | --- | --- | --- | --- | --- | --- | --- | --- | --- | --- | --- | --- | --- | --- |
| 165 to 167 | CCc1ccc(-c2ccc(F)cc2)cc1C1=C(O)[C@@]2(C)CC[C@H](O2)C1=O [Compound A-38] | 50 | 10 | 30 | 70 | 60 | 90 | 50 | 60 | 70 | 90 | 0 | 80 |  |  |  |  |  |  |  |
| 123 to 124 | CCc1ccc(-c2ccc(Cl)cc2)cc1C1=C(O)C(C)(C)OC(C)(COC)C1=O (stereo not shown) [Compound A-99] |  |  |  |  |  |  |  |  |  |  |  |  |  |  |  |  |  |  | pest or weed control at 250 g/ha [13]: 80%; pest or weed control at 250 g/ha [14]: 20%; pest or weed control at 250 g/ha (Avena fatua (AVEFA) [15]): 50%; pest or weed control at 250 g/ha [16]: 100%; pest or weed control at 250 g/ha (Setaria faberi (SETFA) [17]): 100%; pest or weed control at 250 g/ha [18]: 90%; pest or weed control at 250 g/ha [19]: 0%; pest or weed control at 250 g/ha (Avena fatua (AVEFA) [20]): 90%; pest or weed control at 250 g/ha [21]: 100%; pest or weed control at 250 g/ha (Setaria faberi (SETFA) [22]): 100% |
|  | CCc1ccc(-c2ccc(Cl)cc2)cc1C1=C(O)C(C)(C)C(=O)C(C)(C)C1=O [Compound B-1] |  |  |  |  |  |  | 30 | 30 | 100 | 100 | 80 | 90 | 40 | 60 | 100 | 100 | 60 | 100 |  |
| 79.5 | CCc1ccc(-c2ccc(Cl)cc2)cc1C1=C(O)C2CCCC(C1=O)C2=O (stereo not shown) [Compound B-53] |  |  |  |  |  |  |  |  |  |  |  |  |  |  |  |  |  |  |  |
|  | CCc1ccc(-c2ccc(Cl)cc2)cc1C1=C(O)C(C)(C)SC(C)(C)C1=O [Compound C-1] |  |  |  |  |  |  | 50 | 70 | 100 | 100 | 30 | 80 | 20 | 20 | 30 | 50 | 30 | 30 |  |
|  | CCc1ccc(-c2ccc(Cl)cc2)cc1C1=C(O)C(C)(C)[S+]([O-])C(C)(C)C1=O (stereo not shown) [Compound C-2] | 10 | 10 | 100 | 100 | 10 | 70 | 70 | 70 | 90 | 100 | 60 | 90 |  |  |  |  |  |  |  |
|  | CCc1ccc(-c2ccc(Cl)cc2)cc1C1=C(O)C(C)(C)S(=O)(=O)C(C)(C)C1=O [Compound C-3] | 60 | 80 | 90 | 70 | 10 | 60 | 70 | 80 | 100 | 100 | 50 | 90 |  |  |  |  |  |  |  |
|  | CCCCC(=O)OC1=C(c2cc(-c3ccc(Cl)cc3)ccc2CC)C(=O)C(C)(C)OC1(C)C [Compound D-2] |  |  |  |  |  |  | 20 | 10 | 90 | 90 | 20 | 90 | 30 | 60 | 100 | 80 | 80 | 100 |  |
|  | COC(=O)OC1=C(c2cc(-c3ccc(Cl)cc3)ccc2C)C(=O)C(C)(C)OC1 [Compound D-5] |  |  |  |  |  |  | 10 | 40 | 20 | 60 | 40 | 70 | 0 | 20 | 60 | 50 | 0 | 20 |  |
